Measured values as given in patent US20080175891A1, “METHODS, COMPOSITIONS, AND FORMULATIONS FOR PREVENTING OR REDUCING ADVERSE EFFECTS IN A PATIENT” (priority 2007, published 2008).

Key:
[1] = human, in vivo
Source text: Applicant also discovered that lower doses of AICA riboside were needed to achieve the desired blood concentration levels in anesthetized patients than in non-anesthetized patients. It appears that the dose needed in anesthetized patients may be about 20-50% less than the dose needed in non-anesthetized patients. Thus, a preferred dosage of AICA riboside (or prodrug) in a non-anesthetized patient or a patient anesthetized for a short time is larger than the preferred dosage for an anesthetized patient. Accordingly, dosages of from about 0.075 mg/kg/min to about 0.30 mg/kg/min are preferred in such cases, more preferably between about 0.10 mg/kg/min and about 0.15 mg/kg/min, and most preferably about 0.125 mg/kg/min.

[2] = tested on: patients with adenylosuccinase deficiency (autism); test: Therapeutic trials in patients with adenylosuccinase deficiency (autism) (Example X); type: in vivo, human; conditions: oral
Description: Conditions potentially associated with chronic low adenosine may also be treated by compounds of the invention. These pathologic states include autism, insomnia, cerebral palsy, schizophrenia, and other neuropsychiatric symptoms. It is anticipated that doses ranging from 0.1 mg/kg/day up to about 200 mg/kg/day will be beneficial.

[3] = tested on: mast cells; test: Mast cell activation / degranulation; type: cell-based
Source text: As discussed in B. Benacerra and A. Unanue in Textbook of Immunology (Williams & Williams Baltimore/London, 1979), a key to suppressing allergic responses is to prevent the release of pharmacologically active substances by mast cells. Mast cells are large basophilic staining cells with extensive granules that contain substances, such as histamines, that are liberated by the mast cell during an allergic reaction and are required to support the allergic response. The release of these pharmacologically active substances present in mast cells is termed “degranulation.” Thus, chemicals that prevent degranulation should have a beneficial effect on reducing the severity of the allergic response. […] Mast cell activation also causes the release of prostaglandins and leukotrienses (non-preformed mediators) such as slow reactive substance of anaphylaxis.

[4] = tested on: bronchospasm induced by antigen sensitization; conditions: guinea pig; cited from earlier work
[5] = tested on: arrhythmias; test: Prophylactic effect of AICA riboside treatment on arrhythmias (Examples VI and XIV); type: in vivo
Source text: Another disease caused by or able to cause restricted blood flow is myocardial arrhythmia. Although restricted blood flow can initiate the onset of arrhythmia, the precise cause is unknown. However, it is known that lipid peroxidation by oxygen radicals is arrhythmogenic. Since the latter are produced by granulocytes, the inhibition of granulocyte superoxide production by the method of the invention can be expected to control arrhythmia. In addition, mast cells are in higher concentration in areas of atherosclerosis. Suppression of their activation might reduce the release of other mediators of arrhythmias. Adenosine also has direct anti-arrhythmic effects on myocytes. […] Rapid firing of cells during arrhythmia causes increased net ATP catabolism and adenosine release.

[6] = tested on: pentylene tetrazol-induced seizures; test: Pentylene tetrazol-induced seizures (Example XIII); conditions: in vivo
Source text: The adenosine released from neuronal cells when they are stimulated and break down ATP during seizure (epileptic) activity normally will feedback and suppress this seizure (epileptic) activity.

[7] = tested on: seizures; conditions: experimental animal model; cited from earlier work

SMILES: NC(=O)c1ncn([C@@H]2O[C@H](CO)[C@@H](O)[C@H]2O)c1N [AICA riboside, 5-amino-1-β-D-ribofuranosyl-imidazole-4-carboxamide]
- dose needed in anesthetized patients, less than in non-anesthetized patients [1]: 20-50%
- clinical or biochemical side effects ([2]; 5 mg/kg/day increased to 2×10 mg/kg/day): No clinical or biochemical side effects were observed
- behaviour during therapy as described by the parent ([2]; 5 mg/kg/day increased to 2×10 mg/kg/day, both patients): more pleasantly active and more easy to handle during therapy
- clinical improvement ([2]; 5 mg/kg/day increased to 2×5 and finally 2×10 mg/kg/day, two patients): clear-cut improvement in one of two patients
- mast cell activation [3]: suppress mast cell activation
- mast cell degranulation [3]: prevent mast cell degranulation
- anti-allergic actions [4]: anti-allergic actions
- number of premature ventricular depolarizations [5]: decreased number
- number of ventricular tachycardia episodes [5]: decreased number
- incidence of pentylene tetrazol-induced seizures [6]: decreased incidence
- latency to pentylene tetrazol-induced seizures [6]: prolonged latency
- inhibition of seizures [7]: inhibitor of seizures

SMILES: CC(=O)OC[C@H]1O[C@@H](c2nc(C(N)=O)c(N)[nH]2)[C@H](OC(C)=O)[C@@H]1OC(C)=O [Compound No. 2, 5-Amino-(2,3,5-tri-O-acetyl-beta-D-ribofuranosyl)imidazole-4-carboxamide]
- melting point: 128 to 129 °C

SMILES: Nc1c(C(=O)NCCCCCCNC(=O)c2ncn([C@@H]3O[C@H](CO)[C@@H](O)[C@H]3O)c2N)ncn1[C@@H]1O[C@H](CO)[C@@H](O)[C@H]1O [Compound No. 68, N,N′-bis-(5-amino-1-β-D-ribofuranosylimidazole-4-carbonyl)-1,6-diaminohexane]
- melting point: 181 to 185 °C

SMILES: NC(=O)c1ncn([C@@H]2O[C@H](CO)[C@@H](O)[C@H]2O)n1 [ribavirin, 1-β-D-ribofuranosyl-1H-1,2,4-triazole-3-carboxamide]
- mast cell activation [3]: suppress mast cell activation
- mast cell degranulation [3]: prevent mast cell degranulation
